Results reported in ChEMBL document CHEMBL1201862, “PubChem BioAssay data set” (2004).
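Method: 48-hour compound exposure of cells in 96-well plates, five concentrations, linear interpolation of endpoints. GI50 marks 50% less growth.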 The source made the active and inactive calls. No stated cut-off is given here; in the data, active = GI50 up to about 1.1 µM and inactive = higher.

Legend:
Assay in all cases: NCI-60 cell line screen, 48 h
CAKI-1 = tested on: CAKI-1
Hs-578T = tested on: Hs-578T
A498 = tested on: A498
RPMI-8226 = tested on: RPMI-8226
HT-29 = tested on: HT-29
IGROV-1 = tested on: IGROV-1
MCF7 = tested on: MCF7
MDA-N = tested on: MDA-N
MDA-MB-435 = tested on: MDA-MB-435
CCRF-CEM = tested on: CCRF-CEM
PC-3 = tested on: PC-3
SN12C = tested on: SN12C
EKVX = tested on: EKVX
LOX IMVI = tested on: LOX IMVI
SK-OV-3 = tested on: SK-OV-3
HOP-62 = tested on: HOP-62
NCI/ADR-RES = tested on: NCI/ADR-RES
Malme-3M = tested on: Malme-3M
SNB-75 = tested on: SNB-75
HCC 2998 = tested on: HCC 2998

SMILES | GI50 (CAKI-1) | GI50 (Hs-578T) | GI50 (A498) | GI50 (RPMI-8226) | GI50 (HT-29) | GI50 (IGROV-1) | GI50 (MCF7) | GI50 (MDA-N) | GI50 (MDA-MB-435) | GI50 (CCRF-CEM) | GI50 (PC-3) | GI50 (SN12C) | GI50 (EKVX) | GI50 (LOX IMVI) | GI50 (SK-OV-3) | GI50 (HOP-62) | GI50 (NCI/ADR-RES) | GI50 (Malme-3M) | GI50 (SNB-75) | GI50 (HCC 2998)
CC(=O)Nc1oc(C)nc1C#N | > 100 µM (inactive) | > 100 µM (inactive) | > 100 µM (inactive) | > 100 µM (inactive) | > 100 µM (inactive) | > 100 µM (inactive) | > 100 µM (inactive) | > 100 µM (inactive) | > 100 µM (inactive) | > 100 µM (inactive) | > 100 µM (inactive) | > 100 µM (inactive) | > 100 µM (inactive) | > 100 µM (inactive) | > 100 µM (inactive) | > 100 µM (inactive) | – | – | – | –
CCNC1=C(NC(=O)c2ccc(F)cc2)C(=O)c2ccccc2C1=O | – | > 100 µM (inactive) | – | > 100 µM (inactive) | 22.2 µM (inactive) | 31.6 µM (inactive) | 30.3 µM (inactive) | 33.6 µM (inactive) | 18.2 µM (inactive) | 35.8 µM (inactive) | 17.3 µM (inactive) | 38.7 µM (inactive) | > 100 µM (inactive) | – | 18.5 µM (inactive) | > 100 µM (inactive) | 27.3 µM (inactive) | 19.2 µM (inactive) | 62.2 µM (inactive) | 34.8 µM (inactive)
Cc1ccc(Cc2cc(N3CCN(c4cccc(Cl)c4)CC3)nnc2C)cc1 | > 100 µM (inactive) | 54 µM (inactive) | > 100 µM (inactive) | 17.8 µM (inactive) | 31.6 µM (inactive) | – | 76.2 µM (inactive) | 16.4 µM (inactive) | 27.7 µM (inactive) | – | 46.8 µM (inactive) | 56.4 µM (inactive) | 34.4 µM (inactive) | – | > 100 µM (inactive) | > 100 µM (inactive) | 43.3 µM (inactive) | – | 50.4 µM (inactive) | –
CCOC(=O)C(=O)N1C(C)=C(C(=O)OCC)CC(C(=O)OCC)=C1C | > 100 µM (inactive) | > 100 µM (inactive) | > 100 µM (inactive) | > 100 µM (inactive) | – | > 100 µM (inactive) | > 100 µM (inactive) | > 100 µM (inactive) | > 100 µM (inactive) | > 100 µM (inactive) | > 100 µM (inactive) | > 100 µM (inactive) | > 100 µM (inactive) | > 100 µM (inactive) | > 100 µM (inactive) | > 100 µM (inactive) | – | > 100 µM (inactive) | 26.7 µM (inactive) | > 100 µM (inactive)
COc1ccc(C2C3COc4ccccc4C3=NN2c2ccccc2)cc1 (stereo not drawn) | > 100 µM (inactive) | > 100 µM (inactive) | > 100 µM (inactive) | > 100 µM (inactive) | 87.1 µM (inactive) | > 100 µM (inactive) | 63.8 µM (inactive) | > 100 µM (inactive) | 62.4 µM (inactive) | > 100 µM (inactive) | 57.7 µM (inactive) | – | > 100 µM (inactive) | > 100 µM (inactive) | > 100 µM (inactive) | > 100 µM (inactive) | > 100 µM (inactive) | > 100 µM (inactive) | > 100 µM (inactive) | –
O=C1C(Cl)C(c2cccc(Cl)c2)N1c1ccc(-n2c(S)nc3ccccc3c2=O)cc1 (stereo not drawn) | 34.7 µM (inactive) | 20.2 µM (inactive) | – | 17.9 µM (inactive) | 18.8 µM (inactive) | 5.07 µM (inactive) | 14.7 µM (inactive) | 19.1 µM (inactive) | 15.7 µM (inactive) | 23 µM (inactive) | 27.7 µM (inactive) | 15.8 µM (inactive) | 32.1 µM (inactive) | 13.9 µM (inactive) | 20.6 µM (inactive) | 23.9 µM (inactive) | 25.8 µM (inactive) | 40.2 µM (inactive) | – | 14.4 µM (inactive)
O=C(OC1C2OC(=O)c3cc(O)c(O)c(O)c3Oc3cc4c(c(O)c3O)-c3c(cc(O)c(O)c3O)C(=O)OCC3OC(O)C(OC(=O)c5cc(O)c(O)c(O)c5Oc5cc6c(c(O)c5O)-c5c(cc(O)c(O)c5O)C(=O)OC1C(COC6=O)OC2O)C(OC(=O)c1cc(O)c(O)c(O)c1)C3OC4=O)c1cc(O)c(O)c(O)c1 (stereo not drawn) | 38.3 µM (inactive) | 32.3 µM (inactive) | – | 4.59 µM (inactive) | 17.9 µM (inactive) | 40.2 µM (inactive) | 50.7 µM (inactive) | 21.2 µM (inactive) | 21.4 µM (inactive) | 3.61 µM (inactive) | 20 µM (inactive) | 26.7 µM (inactive) | 12.5 µM (inactive) | 17.9 µM (inactive) | 12.5 µM (inactive) | 23.4 µM (inactive) | 58.2 µM (inactive) | > 100 µM (inactive) | – | –
COC(=O)C(C(=O)C(=O)Nc1ccccc1C#N)c1nc2ccc([N+](=O)[O-])cc2nc1O (stereo not drawn) | > 100 µM (inactive) | > 100 µM (inactive) | – | – | > 100 µM (inactive) | 94.4 µM (inactive) | > 100 µM (inactive) | > 100 µM (inactive) | > 100 µM (inactive) | 94 µM (inactive) | > 100 µM (inactive) | > 100 µM (inactive) | 78 µM (inactive) | > 100 µM (inactive) | > 100 µM (inactive) | > 100 µM (inactive) | 92.5 µM (inactive) | > 100 µM (inactive) | > 100 µM (inactive) | > 100 µM (inactive)
COc1cc(S(=O)(=O)Nc2ccc(-c3csc(N)n3)cc2)ccc1Cl | 20.2 µM (inactive) | 53.7 µM (inactive) | 18.2 µM (inactive) | 19.5 µM (inactive) | 20.7 µM (inactive) | – | 15.2 µM (inactive) | 19.4 µM (inactive) | 20.8 µM (inactive) | 15.5 µM (inactive) | 15.3 µM (inactive) | 18.3 µM (inactive) | 16.6 µM (inactive) | 18.7 µM (inactive) | – | – | 33.9 µM (inactive) | 16.6 µM (inactive) | 21.4 µM (inactive) | –
CCOC(=O)C(NC(=O)NC(C(=O)OCC)C(=O)OCC)C(=O)OCC | > 100 µM (inactive) | > 100 µM (inactive) | – | > 100 µM (inactive) | > 100 µM (inactive) | > 100 µM (inactive) | > 100 µM (inactive) | > 100 µM (inactive) | 98.2 µM (inactive) | – | > 100 µM (inactive) | > 100 µM (inactive) | > 100 µM (inactive) | – | > 100 µM (inactive) | > 100 µM (inactive) | > 100 µM (inactive) | > 100 µM (inactive) | – | > 100 µM (inactive)
C/C(CC(O)(C(F)(F)Cl)C(F)(F)Cl)=N\Nc1ccccc1 | 22.2 µM (inactive) | 27.2 µM (inactive) | 40 µM (inactive) | 30.2 µM (inactive) | 42.9 µM (inactive) | 36.3 µM (inactive) | 23.2 µM (inactive) | 43.6 µM (inactive) | 31.9 µM (inactive) | 29 µM (inactive) | 22.2 µM (inactive) | – | 23.1 µM (inactive) | 27.5 µM (inactive) | 29.4 µM (inactive) | – | 24.8 µM (inactive) | 32.4 µM (inactive) | 28.9 µM (inactive) | –
CC12OC3(C(O)C1O)C(C(=O)O[C@H]3CO[Si](C)(C)C(C)(C)C)C2S(=O)(=O)c1ccccc1 (stereo partly drawn) | – | 30 µM (inactive) | > 100 µM (inactive) | 27.1 µM (inactive) | 33.3 µM (inactive) | 21 µM (inactive) | 36.1 µM (inactive) | 61.4 µM (inactive) | 34.4 µM (inactive) | – | 26.9 µM (inactive) | > 100 µM (inactive) | 46.9 µM (inactive) | 18.7 µM (inactive) | > 100 µM (inactive) | > 100 µM (inactive) | 11.9 µM (inactive) | – | 13.9 µM (inactive) | –
Cc1ccc(Nc2nc3c(=O)n(C)c(=O)n(C)c3nc2Nc2ccc(C)cc2)cc1 | 16.4 µM (inactive) | 25.8 µM (inactive) | 16.5 µM (inactive) | 7.62 µM (inactive) | 10.4 µM (inactive) | 15 µM (inactive) | – | 11.3 µM (inactive) | 12.1 µM (inactive) | 2.3 µM (inactive) | 14.7 µM (inactive) | 15.5 µM (inactive) | 16 µM (inactive) | 10.1 µM (inactive) | 21.9 µM (inactive) | 18.9 µM (inactive) | 17.2 µM (inactive) | 14.9 µM (inactive) | 15.4 µM (inactive) | 17.5 µM (inactive)
CC(=O)CC(=O)N1CCSC1=S | – | > 10 µM (inactive) | > 10 µM (inactive) | > 10 µM (inactive) | > 10 µM (inactive) | > 10 µM (inactive) | > 10 µM (inactive) | > 10 µM (inactive) | > 10 µM (inactive) | > 10 µM (inactive) | > 10 µM (inactive) | > 10 µM (inactive) | > 10 µM (inactive) | > 10 µM (inactive) | > 10 µM (inactive) | > 10 µM (inactive) | – | > 10 µM (inactive) | > 10 µM (inactive) | > 10 µM (inactive)
Cc1cccc(O)c1-c1nnc(CCCCCCCCc2nnc(-c3c(C)cccc3O)n2N)n1N | > 100 µM (inactive) | 39.9 µM (inactive) | > 100 µM (inactive) | > 100 µM (inactive) | > 100 µM (inactive) | > 100 µM (inactive) | 55 µM (inactive) | > 64.6 µM (inactive) | > 69.5 µM (inactive) | 0.929 µM (active) | > 100 µM (inactive) | > 100 µM (inactive) | > 67.3 µM (inactive) | 45.2 µM (inactive) | > 60.5 µM (inactive) | 27.6 µM (inactive) | – | > 85.3 µM (inactive) | 25 µM (inactive) | > 100 µM (inactive)
